Results taken from patent publication US7432276B2, “ABCA1 elevating compounds” (CV Therapeutics, Inc., priority 2005, dated 2008).

System: ABCA1 mRNA
Experiment: ABCA1 mRNA induction in THP-1 cells, QuantiGene branched DNA assay
Format: cell-based
Details: 10 μM test compound, 18-20 hours
How it was run: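 THP-1 cells, grown to subconfluence, treated with compounds at 10 and 3 μM in DMEM/BSA for 18–20 h. Lysates hybridized with ABCA1-specific probe 16–18 h at 53 °C; QuantiGene branched DNA luminescence gives fold increase over DMSO.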

Row | SMILES | ABCA1 Induction Fold Increase over DMSO Vehicle [FOLD INCREASE]
1 | CCOc1cccc2c1OCC1C2Nc2ccc(C(C)=O)cc2C1(C)C (centres unmarked) [Number 42, 1-(4-ethoxy-7,7-dimethyl-7,12,12a,6a-tetrahydrochromano[4,3-b]quinolin-9-yl)ethan-1-one] | 3.8
2 | COc1ccc(-c2ccc3c(c2)C(C)(C)[C@H]2COc4cccc(OC)c4[C@H]2N3)cc1 [Number 112, 1-((12aS,6aR)-1-methoxy-7,7-dimethyl(7,12,12a,6a-tetrahydrochromano[4,3-b]quinolin-9-yl))-4-methoxybenzene] | 1.7
3 | COc1cccc2c1[C@H]1Nc3ccc(-c4ccc(C#N)cc4)cc3C(C)(C)[C@@H]1CO2 [Number 92, 4-((12aS,6aS)-1-methoxy-7,7-dimethyl-7,12,12a,6a-tetrahydrochromano[4,3-b]quinolin-9-yl)benzenecarbonitrile] | 8.7
4 | COc1cccc2c1[C@H]1Nc3ccc(-c4cnco4)cc3C(C)(C)[C@H]1CO2 [Number 62, (12aS,6aR)-1-methoxy-7,7-dimethyl-9-(1,3-oxazol-5-yl)-7,12,12a,6a-tetrahydrochromano[4,3-b]quinoline] | 10.6
5 | COc1cccc2c1OC[C@H]1C2Nc2ccc(C(O)(C(F)(F)F)C(F)(F)F)cc2C1(C)C (stereo partly drawn) [Number 34, 2-((6aR)-4-methoxy-7,7-dimethyl(7,12,12a,6a-tetrahydrochromano[4,3-b]quinolin-9-yl))-1,1,1,3,3,3-hexafluoropropan-2-ol] | 4.5
6 | COC(=O)/C=C/c1ccc2c(c1)C1Nc3ccc(C(O)(C(F)(F)F)C(F)(F)F)cc3C(C)(C)C1CO2 (centres unmarked) [Number 35, methyl (2E)-3-{7,7-dimethyl-9-[2,2,2-trifluoro-1-hydroxy-1-(trifluoromethyl)ethyl](7,12,12a,6a-tetrahydrochromano[4,3-b]quinolin-2-yl)}prop-2-enoate] | 4.3
7 | CCOc1cccc2c1OCC1C2Nc2ccc(C(N)=O)cc2C1(C)C (centres unmarked) [Number 30, 4-ethoxy-7,7-dimethyl-7,12,12a,6a-tetrahydrochromano[4,3-b]quinoline-9-carboxamide] | 5.3
8 | COc1cccc2c1C1Nc3ccc(C(C)(C)C)cc3C(C)(C)C1CO2 (centres unmarked) [Number 88, 9-(tert-butyl)-1-methoxy-7,7-dimethyl-7,12,12a,6a-tetrahydrochromano[4,3-b]quinoline] | 6.8
9 | COc1cccc2c1[C@H]1Nc3ccc(-c4ccc(S(N)(=O)=O)cc4)cc3C(C)(C)[C@@H]1CO2 [Number 97, 4-((12aS,6aS)-1-methoxy-7,7-dimethyl-7,12,12a,6a-tetrahydrochromano[4,3-b]quinolin-9-yl)benzenesulfonamide] | 5.7
10 | COc1cccc2c1[C@H]1Nc3ccc(C(C)C)cc3C(C)(C)[C@H]1CO2 [Number 54, (12aS,6aR)-1-methoxy-7,7-dimethyl-9-(methylethyl)-7,12,12a,6a-tetrahydrochromano[4,3-b]quinoline] | 4.3
11 | COc1cccc2c1[C@H]1Nc3ccc(-c4nc(C(=O)N5CCS(=O)(=O)CC5)co4)cc3C(C)(C)[C@H]1CO2 [Number 148, 2-((6aR,12aS)-1-methoxy-6a,7,12,12a-tetrahydro-7,7-dimethyl-6H-chromeno[4,3-b]quinolin-9-yl)oxazole-(4-(1,1-dione-1,4-thiazaperhydroin-yl)methanone)] | 11
12 | COc1cccc2c1[C@H]1Nc3ccc(-n4cc(C(=O)N5CCS(=O)(=O)CC5)cn4)cc3C(C)(C)[C@H]1CO2 [Number 138, 1-((6aR,12aS)-6a,7,12,12a-tetrahydro-1-methoxy-7,7-dimethyl-6H-chromeno[4,3-b]quinolin-9-yl)1-1H-pyrazole-4-((1,1-dione-1,4-thiazaperhydroin-yl)methanone)] | 7.4
13 | COc1cccc2c1[C@H]1Nc3ccc(-c4ccccc4)cc3C(C)(C)[C@@H]1CO2 [Number 94, (12aS,6aS)-1-methoxy-7,7-dimethyl-9-phenyl-7,12,12a,6a-tetrahydrochromano[4,3-b]quinoline] | 5.8
14 | Cc1cccc2c1OCC1C2Nc2ccccc2C1(C)C (centres unmarked) [Number 31, 4,7,7-trimethyl-7,12,12a,6a-tetrahydrochromano[4,3-b]quinoline] | 5.5
15 | CC1(C)c2cc(C(O)(C(F)(F)F)C(F)(F)F)ccc2NC2c3cc(OC(F)(F)F)ccc3OCC21 (centres unmarked) [Number 8, 2-[7,7-dimethyl-2-(trifluoromethoxy)(7,12,12a,6a-tetrahydrochromano[4,3-b]quinolin-9-yl)]-1,1,1,3,3,3-hexafluoropropan-2-ol] | 3.0
16 | COc1cccc2c1[C@H]1Nc3cc(C#N)ccc3C(C)(C)[C@H]1CO2 [Number 63, (12aS,6aR)-1-methoxy-7,7-dimethyl-7,12,12a,6a-tetrahydrochromano[4,3-b]quinoline-10-carbonitrile] | 3.5
17 | CC1(C)c2cc(CC(=O)O)ccc2NC2c3cc(Br)ccc3OCC21 (centres unmarked) [Number 4, 2-(2-bromo-7,7-dimethyl-7,12,12a,6a-tetrahydrochromano[4,3-b]quinolin-9-yl)acetic acid] | 2.1

Same assay, conditions: Homo sapiens, 10 μM test compound, 18-20 hours, read-out: ABCA1 Induction Fold Increase over DMSO Vehicle

Row | SMILES | fold induction at 10 µM
18 | CN(C)C(=O)/C=C/c1ccc2c(c1)C1Nc3ccc(C(O)(C(F)(F)F)C(F)(F)F)cc3C(C)(C)C1CO2 (centres unmarked) [Number 36, (2E)-3-{7,7-dimethyl-9-[2,2,2-trifluoro-1-hydroxy-1-(trifluoromethyl)ethyl](7,12,12a,6a-tetrahydrochromano[4,3-b]quinolin-2-yl)}-N,N-dimethylprop-2-enamide] | 5.3
19 | COc1cccc2c1[C@@H]1[C@H](CO2)C(C)(C)c2ccccc2N1C(C)C [Number 155, (6aR,12aS)-6a,7,12,12a-tetrahydro-12-isopropyl-1-methoxy-7,7-dimethyl-6H-chromeno[4,3-b]quinoline] | 2.7
20 | CC1(C)c2cc(C(=O)N3CCNCC3)ccc2N[C@@H]2c3c(F)cccc3OC[C@@H]21 [Number 130, ((6aR,12aS)-1-fluoro-6a,7,12,12a-tetrahydro-7,7-dimethyl-6H-chromeno[4,3-b]quinolin-9-yl)(piperazin-1-yl)methanone] | 4.2
21 | CC1(C)c2cc(-c3nc(C(=O)O)co3)ccc2N[C@@H]2c3c(F)cccc3OC[C@@H]21 [Number 131, 2-((6aR,12aS)-1-fluoro-6a,7,12,12a-tetrahydro-7,7-dimethyl-6H-chromeno[4,3-b]quinolin-9-yl)oxazole-4-carboxylic acid] | 2
22 | CCOP(=O)(Cc1ccc2c(c1)C(C)(C)[C@@H]1COc3c(OC)cc(Br)cc3[C@H]1N2)OCC [Number 179, diethyl((6aS,12aS)-2-bromo-6a,7,12,12a-tetrahydro-4-methoxy-7,7-dimethyl-6H-chromeno[4,3-b]quinolin-9-yl)methylphosphonate] | 5.2
23 | COc1cccc2c1[C@@H]1[C@H](CO2)C(C)(C)c2ccccc2N1CC(=O)O [Number 154, 2-((6aR,12aS)-6a,7-dihydro-1-methoxy-7,7-dimethyl-6H-chromeno[4,3-b]quinolin-12(12aH)-yl)acetic acid] | 9.4
